In US11925629B2, “Heterocyclic inhibitors of ERK1 and ERK2 and their use in the treatment of cancer” (Asana Biosciences, LLC, priority 2015, dated 2024):
Where two headings read alike, the source gives them in different places.

Tests used:
Type in all cases: cell-based, human
[1] = tested on: HT-29 (colorectal carcinoma, B-RafV600E) cells; assay: Cell proliferation (Alamar Blue) assay, HT-29; conditions: Homo sapiens, HT-29, HT29 cells
Method in brief: (§1)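 A 72 h exposure to compound (3-fold series, typically 0.0005 to 10 uM) of cells seeded at 5000/well precedes a 1-3 h Alamar Blue (1×) incubation. Growth inhibition is quantified by fluorescence and fitted to give IC50.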

[2] = tested on: phosphorylation of RSK1(S380) (the downstream target of ERK1/2); assay: Phospho-RSK1(S380) ELISA assay in HT-29 cells; conditions: Homo sapiens, HT-29, HT29 cells, read-out: Mechanistic Cell Assay RSK1 Phos HT29 IC50
Method in brief: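 IC50 values derive from a variable-slope sigmoidal fit of sandwich-ELISA signal (450 nm) for RSK1 Ser380 phosphorylation. The cells were B-RafV600E HT-29 colorectal line, exposed to serially diluted compound for 2 h after overnight seeding, then lysed at 4° C.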

[3] = tested on: HCT116 (colorectal carcinoma, K Ras G13D) cells; assay: Cell proliferation (Alamar Blue) assay, HCT116; conditions: Homo sapiens, HCT-116, HCT116 cells
Method in brief: as §1

| Compound | IC50 [1] | IC50 ([2]; phospho-RSK1(S380)) | IC50 [3] | IC50 [2] |
| --- | --- | --- | --- | --- |
| CC[C@@H](CO)Nc1ncc(C)c(-n2ccc(C(=O)N[C@H](CO)c3cccc(Cl)c3)c2)n1 [Example 219, N-((S)-1-(3-chlorophenyl)-2-hydroxyethyl)-1-(2-(((S)-1-hydroxybutan-2-yl)amino)-5-methylpyrimidin-4-yl)-1H-pyrrole-3-carboxamide] | 100 to 250 nM | 250 to 500 nM | 500 to 2500 nM |  |
| CC[C@@H](CO)Nc1ncc(C)c(-n2cnc(C(=O)N[C@H](CO)c3cccc(Cl)c3)c2)n1 [Example 220, N-((S)-1-(3-chlorophenyl)-2-hydroxyethyl)-1-(2-(((S)-1-hydroxybutan-2-yl)amino)-5-methylpyrimidin-4-yl)-1H-imidazole-4-carboxamide] | 100 to 250 nM | 250 to 500 nM | 500 to 2500 nM |  |
| Cc1cnc(N[C@H]2CCOC2)nc1-n1cnc(C(=O)NCc2cccc(Cl)c2CO)c1 [Example 270] | ≤ 100 nM | 100 to 250 nM | ≤ 100 nM |  |
| Cc1cnc(NC2CCOCC2)nc1-n1cnc(C(=O)N[C@@H](CN)c2cc(F)cc(Cl)c2)c1 [Example 276, (R)-N-(2-amino-1-(3-chloro-5-fluorophenyl)ethyl)-1-(5-methyl-2-((tetrahydro-2H-pyran-4-yl)amino)pyrimidin-4-yl)-1H-imidazole-4-carboxamide] | 250 to 500 nM | 100 to 250 nM | 500 to 2500 nM |  |
| Cc1cnc(Nc2ccnn2C)nc1-n1cnc(C(=O)N[C@H](CO)c2cccc(Cl)c2)c1 [Example 277, (S)-N-(1-(3-chlorophenyl)-2-hydroxyethyl)-1-(5-methyl-2-((1-methyl-1H-pyrazol-5-yl)amino)pyrimidin-4-yl)-1H-imidazole-4-carboxamide] | 250 to 500 nM | 500 to 2500 nM | 250 to 500 nM |  |
| Cc1cnc(Nc2ccnn2C)nc1-n1cnc(C(=O)N[C@H](CN)c2cccc(Cl)c2)c1 [Example 280, (S)-N-(2-amino-1-(3-chlorophenyl)ethyl)-1-(5-methyl-2-((1-methyl-1H-pyrazol-5-yl)amino)pyrimidin-4-yl)-1H-imidazole-4-carboxamide] | ≤ 100 nM | ≤ 100 nM | ≤ 100 nM |  |
| Cc1cnc(NC2CCOCC2)nc1-n1cnc(C(=O)NCc2nccs2)c1 [Example 281, 1-(5-methyl-2-((tetrahydro-2H-pyran-4-yl)amino)pyrimidin-4-yl)-N-(thiazol-2-ylmethyl)-1H-imidazole-4-carboxamide] | 500 to 2500 nM | 100 to 250 nM | > 2500 nM |  |
| Cc1cnc(NC2CCOCC2)nc1-n1cnc(C(=O)NCc2ccccc2CN)c1 [Example 283, N-(2-(aminomethyl)benzyl)-1-(5-methyl-2-((tetrahydro-2H-pyran-4-yl)amino)pyrimidin-4-yl)-1H-imidazole-4-carboxamide] | 500 to 2500 nM | 500 to 2500 nM | > 2500 nM |  |
| Cc1cnc(NC2CCOCC2)nc1-n1cnc(C(=O)NCc2sccc2CO)c1 [Example 284, N-((3-(hydroxymethyl)thiophen-2-yl)methyl)-1-(5-methyl-2-((tetrahydro-2H-pyran-4-yl)amino)pyrimidin-4-yl)-1H-imidazole-4-carboxamide] | 250 to 500 nM | 500 to 2500 nM | 500 to 2500 nM |  |
| Cc1cnc(NC2CCOCC2)nc1-n1cnc(C(=O)NCc2cccc(Cl)c2CN)c1 [Example 285, N-(2-(aminomethyl)-3-chlorobenzyl)-1-(5-methyl-2-((tetrahydro-2H-pyran-4-yl)amino)pyrimidin-4-yl)-1H-imidazole-4-carboxamide] | ≤ 100 nM | ≤ 100 nM | 100 to 250 nM |  |
| Cc1cnc(NC2CCC(F)(F)CC2)nc1-n1cnc(C(=O)N[C@H](CN)c2cccc(Cl)c2)c1 [Example 286, (S)-N-(2-amino-1-(3-chlorophenyl)ethyl)-1-(2-((4,4-difluorocyclohexyl)amino)-5-methylpyrmidin-4-yl)-1H-imidazole-4-carboxamide] | ≤ 100 nM | ≤ 100 nM | ≤ 100 nM |  |
| Cc1cnc(NC2CCOCC2)nc1-n1cnc(C(=O)NCc2ccccc2CO)c1 [Example 287, N-(2-(hydroxymethyl)benzyl)-1-(5-methyl-2-((tetrahydro-2H-pyran-4-yl)amino)pyrimidin-4-yl)-1H-imidazole-4-carboxamide] | ≤ 100 nM | 500 to 2500 nM | 250 to 500 nM |  |
| Cc1cnc(NC2CC(F)(F)C2)nc1-n1cnc(C(=O)N[C@H](CN)c2cc(F)cc(Cl)c2)c1 [Example 288, (S)-N-(2-amino-1-(3-chloro-5-fluorophenyl)ethyl)-1-(2-((3,3-difluorocyclobutyl)amino)-5-methylpyrimidin-4-yl)-1H-imidazole-4-carboxamide] | ≤ 100 nM | 100 to 250 nM | ≤ 100 nM |  |
| Cc1cnc(NC2CCOCC2)nc1-n1cnc(C(=O)N[C@H](CNCc2ccc[nH]2)c2cccc(Cl)c2)c1 [Example 306, (S)-N-(2-(((1H-pyrrol-2-yl)methyl)amino)-1-(3-chlorophenyl)ethyl)-1-(5-methyl-2-((tetrahydro-2H-pyran-4-yl)amino)pyrimidin-4-yl)-1H-imidazole-4-carboxamide] | ≤ 100 nM | 100 to 250 nM | ≤ 100 nM |  |
| Cc1cnc(NC2CCOCC2)nc1-n1cnc(C(=O)N[C@H](CNC2CCOCC2)c2cccc(Cl)c2)c1 [Example 308, (S)-N-(1-(3-chlorophenyl)-2-((tetrahydro-2H-pyran-4-yl)amino)ethyl)-1-(5-methyl-2-((tetrahydro-2H-pyran-4-yl)amino)pyrimidin-4-yl)-1H-imidazole-4-carboxamide] | > 2500 nM |  | 250 to 500 nM | 500 to 2500 nM |
| Cc1cnc(NC2CCOCC2)nc1-n1cnc(C(=O)NCc2cccc(Cl)c2F)c1 [Example 309, N-(3-chloro-2-fluorobenzyl)-1-(5-methyl-2-((tetrahydro-2H-pyran-4-yl)amino)pyrimidin-4-yl)-1H-imidazole-4-carboxamide] | 250 to 500 nM |  | 500 to 2500 nM | 500 to 2500 nM |
| Cc1cnc(N[C@H]2CCOC2)nc1-n1cnc(C(=O)NCc2cccc(C#N)c2)c1 [Example 310, (S)-N-(3-cyanobenzyl)-1-(5-methyl-2-((tetrahydrofuran-3-yl)amino)pyrimidin-4-yl)-1H-imidazole-4-carboxamide] | > 2500 nM |  | > 2500 nM | > 2500 nM |
| Cc1cnc(N[C@H]2CCOC2)nc1-n1cnc(C(=O)NCc2cccc(Cl)c2)c1 [Example 318, (S)-N-(3-chlorobenzyl)-1-(5-methyl-2-((tetrahydrofuran-3-yl)amino)pyrimidin-4-yl)-1H-imidazole-4-carboxamide] | 500 to 2500 nM |  | > 2500 nM | 500 to 2500 nM |
| Cc1cnc(NC2CCOCC2)nc1-n1cnc(C(=O)N[C@H](CN(C)C)c2cccc(Cl)c2)c1 [Example 320, (S)-N-(1-(3-chlorophenyl)-2-(dimethylamino)ethyl)-1-(5-methyl-2-((tetrahydro-2H-pyran-4-yl)amino)pyrimidin-4-yl)-1H-imidazole-4-carboxamide] | 250 to 500 nM |  | 500 to 2500 nM | 250 to 500 nM |
| CNC[C@@H](NC(=O)c1cn(-c2nc(NC3CCOCC3)ncc2C)cn1)c1cccc(Cl)c1 [Example 326, (S)-N-(1-(3-chlorophenyl)-2-(methylamino)ethyl)-1-(5-methyl-2-((tetrahydro-2H-pyran-4-yl)amino)pyrimidin-4-yl)-1H-imidazole-4-carboxamide] | ≤ 100 nM |  | ≤ 100 nM | ≤ 100 nM |
| Cc1cnc(NC2CCOCC2)nc1-n1cnc(C(=O)NCc2nc(Cl)sc2C)c1 [Example 328, N-((2-chloro-5-methylthiazol-4-yl)methyl)-1-(5-methyl-2-((tetrahydro-2H-pyran-4-yl)amino)pyrimidin-4-yl)-1H-imidazole-4-carboxamide] | 250 to 500 nM |  | > 2500 nM | 250 to 500 nM |
| Cc1cnc(Nc2ccc(F)cc2Cl)nc1-n1cnc(C(=O)NCc2cccc(Cl)c2CO)c1 [Example 329, N-(3-chloro-2-(hydroxymethyl)benzyl)-1-(2-((2-chloro-4-fluorophenyl)amino)-5-methylpyrimidin-4-yl)-1H-imidazole-4-carboxamide] | ≤ 100 nM |  | 250 to 500 nM | ≤ 100 nM |
| Cc1cnc(NC2CCOCC2)nc1-n1cnc(C(=O)NCc2ccc(Cl)c(CO)c2)c1 [Example 330, N-(4-chloro-3-(hydroxymethyl)benzyl)-1-(5-methyl-2-((tetrahydro-2H-pyran-4-yl)amino)pyrimidin-4-yl)-1H-imidazole-4-carboxamide] | 500 to 2500 nM |  | > 2500 nM | 250 to 500 nM |
| Cc1cnc(N[C@H]2CCOC2)nc1-n1cnc(C(=O)NCc2cccc(Cl)c2C)c1 [Example 331, (S)-N-(3-chloro-2-methylbenzyl)-1-(5-methyl-2-((tetrahydrofuran-3-yl)amino)pyrimidin-4-yl)-1H-imidazole-4-carboxamide] | 500 to 2500 nM |  | 500 to 2500 nM | ≤ 100 nM |
| Cc1cnc(Nc2ccc3c(c2)OC(F)(F)O3)nc1-n1cnc(C(=O)NCc2cccc(Cl)c2CO)c1 [Example 332, N-(3-chloro-2-(hydroxymethyl)benzyl)-1-(2-((2,2-difluorobenzo[d][1,3]dioxol-5-yl)amino)-5-methylpyrimidin-4-yl)-1H-imidazole-4-carboxamide] | 500 to 2500 nM |  | 250 to 500 nM | ≤ 100 nM |
